Measurements as given in the supplement of paper PMC10307832.

How the values were obtained:
Assay in all cases: relative viability (nuclei count vs DMSO), 5 days (fraction); higher = more cells survive
[1] = system: LCLC-97TM1
Outline: (§1)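 Five library-drug doses in √10 steps were combined with a fixed anchor-drug dose, or a single drug was given alone, by pin tool to lung cancer cell lines in 1536-well plates the day after seeding. Nuclei were stained and counted after 5 days. Relative viability is the nuclei count in treated wells over that in vehicle wells, taken as the median of duplicate plates.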

[2] = system: NCI-H1944
Outline: as §1

[3] = system: HCC-827
Outline: as §1

[4] = system: HCC-44
Outline: as §1

[5] = system: EMC-BAC-2
Outline: as §1

[6] = system: H3255
Outline: as §1

[7] = system: NCI-H650
Outline: as §1

[8] = system: NCI-H2087
Outline: as §1

[9] = system: NCI-H1651
Outline: as §1

[10] = system: NCI-H520
Outline: as §1

[11] = system: ChaGo-K-1
Outline: as §1

[12] = system: NCI-H322M
Outline: as §1

Clc1ccc(Nc2nnc(Cc3ccncc3)c3ccccc23)cc1 [Vatalanib] + O=C(CCCCCCC(=O)Nc1ccccc1)NO [Vorinostat] (partner 1 µM)
relative viability ([1]; first compound 0.4 µM): 0.804
relative viability ([1]; first compound 1.265 µM): 0.65
relative viability ([1]; first compound 4 µM): 0.649
relative viability ([2]; first compound 0.04 µM): 0.546
relative viability ([2]; first compound 0.1265 µM): 0.523
relative viability ([2]; first compound 0.4 µM): 0.676
relative viability ([2]; first compound 1.265 µM): 0.529
relative viability ([2]; first compound 4 µM): 0.526
relative viability ([3]; first compound 0.04 µM): 0.767
relative viability ([3]; first compound 0.1265 µM): 0.953
relative viability ([3]; first compound 1.265 µM): 0.741
relative viability ([3]; first compound 4 µM): 0.86
relative viability ([4]; first compound 0.04 µM): 1.11
relative viability ([4]; first compound 0.1265 µM): 1.08
relative viability ([4]; first compound 0.4 µM): 1.09
relative viability ([4]; first compound 1.265 µM): 1.04
relative viability ([4]; first compound 4 µM): 1.07
relative viability ([5]; first compound 0.04 µM): 0.448
relative viability ([5]; first compound 0.1265 µM): 0.414
relative viability ([5]; first compound 0.4 µM): 0.392
relative viability ([5]; first compound 4 µM): 0.457
relative viability ([6]; first compound 0.04 µM): 0.744
relative viability ([6]; first compound 0.1265 µM): 0.832
relative viability ([6]; first compound 0.4 µM): 0.714
relative viability ([6]; first compound 1.265 µM): 0.746
relative viability ([6]; first compound 4 µM): 0.689
relative viability ([7]; first compound 0.04 µM): 0.397
relative viability ([7]; first compound 0.1265 µM): 0.496
relative viability ([7]; first compound 0.4 µM): 0.453
relative viability ([7]; first compound 1.265 µM): 0.414
relative viability ([7]; first compound 4 µM): 0.443
relative viability ([8]; first compound 0.04 µM): 0.836
relative viability ([8]; first compound 0.1265 µM): 0.6
relative viability ([8]; first compound 0.4 µM): 0.595
relative viability ([8]; first compound 1.265 µM): 0.701
relative viability ([8]; first compound 4 µM): 0.533
relative viability ([9]; first compound 0.04 µM): 0.506
relative viability ([9]; first compound 0.1265 µM): 0.606
relative viability ([9]; first compound 0.4 µM): 0.594
relative viability ([9]; first compound 1.265 µM): 0.524
relative viability ([9]; first compound 4 µM): 0.557
relative viability ([10]; first compound 0.04 µM): 0.621
relative viability ([10]; first compound 0.1265 µM): 0.642
relative viability ([10]; first compound 0.4 µM): 0.817
relative viability ([10]; first compound 1.265 µM): 0.661
relative viability ([10]; first compound 4 µM): 0.718
relative viability ([11]; first compound 0.04 µM): 0.787
relative viability ([11]; first compound 0.1265 µM): 0.758
relative viability ([11]; first compound 0.4 µM): 0.848
relative viability ([11]; first compound 1.265 µM): 0.766
relative viability ([11]; first compound 4 µM): 0.788
relative viability ([12]; first compound 0.04 µM): 0.898
relative viability ([12]; first compound 0.1265 µM): 0.867
relative viability ([12]; first compound 0.4 µM): 0.825
relative viability ([12]; first compound 4 µM): 0.899
